Values quoted from earlier work in patent US20080146639A1, “Pharmaceutical Combination of Angiotensin II Antagonists and Angiotensin I Converting Enzyme Inhibitors” (Boehringer Ingelheim Pharma GmbH & Co Kg., priority 2000, published 2008).

Settings: treatment with ACE inhibitor ramipril; HOPE study (New Engl. J. Med., Jan. 20, 2000)

CCOC(=O)[C@H](CCc1ccccc1)N[C@@H](C)C(=O)N1[C@H](C(=O)O)C[C@@H]2CCC[C@@H]21 [ramipril]
reduction of the risk of the combined primary cardiovascular outcome: 22%
